The results in this text go back to patent publication US8436043B2 (Takeda Pharmaceutical Company Limited, priority 2008, dated 2013).

T1 sequence (P47871 26-477): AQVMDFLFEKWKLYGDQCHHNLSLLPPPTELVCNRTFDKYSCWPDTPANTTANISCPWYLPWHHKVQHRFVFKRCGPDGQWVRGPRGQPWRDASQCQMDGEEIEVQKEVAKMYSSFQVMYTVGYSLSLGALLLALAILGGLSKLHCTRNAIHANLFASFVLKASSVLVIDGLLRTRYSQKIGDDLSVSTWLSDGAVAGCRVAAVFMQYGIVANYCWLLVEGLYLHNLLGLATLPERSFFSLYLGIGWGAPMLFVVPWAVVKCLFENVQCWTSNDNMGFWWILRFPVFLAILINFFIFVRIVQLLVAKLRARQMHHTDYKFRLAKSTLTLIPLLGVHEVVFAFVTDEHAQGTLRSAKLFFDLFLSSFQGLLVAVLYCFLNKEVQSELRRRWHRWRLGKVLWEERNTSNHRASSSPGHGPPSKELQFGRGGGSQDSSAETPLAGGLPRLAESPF

One experiment addresses T1, human glucagon receptor (Homo sapiens, UniProt P47871).
T1 construct: made in house; host or cells: FreeStyle CHO cells, transient transfection with pMSRαneo/hGCGR; membrane fraction (35,000 rpm pellet)
The experiment is described as follows: Glucagon binding inhibitory activity ([125I]-glucagon binding to glucagon receptor membrane protein). The note with it: human glucagon receptor membrane protein, [125I]-glucagon, 90 min room temperature. A digest of the protocol:
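Receptor source was a membrane fraction of transiently transfected CHO cells bearing human receptor; 90 min room-temperature binding, filtration harvest, scintillation counting.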
For orientation: IC50 means the midpoint of a concentration-inhibition curve. For `Cn1c(C(Nc2ccc(C(=O)NCCC(=O)O)cc2)C2CCCCC2)nc2ccccc21` (stereo not drawn) [Example A3, 3-{[(4-{[cyclohexyl(1-methyl-1H-benzimidazol-2-yl)methyl]amino}phenyl)carbonyl]amino}propanoic acid], the 50% inhibitory concentration (IC50) came out at 1.7 µM.

The same experiment, now with this note: test compound 10 μM; 0.4% DMSO = 0%, non-labeled glucagon 1 μM = 100%.
`Cc1c(C(Nc2ccc(C(=O)N(C)CCC(=O)O)cc2)C2CCCC2)sc2ccccc12` (stereo not drawn) [Example A65, 3-{[(4-{[cyclopentyl(3-methyl-1-benzothiophen-2-yl)methyl]amino}phenyl)carbonyl](methyl)amino}propanoic acid]: the “inhibitory rate (%) at 10 μM” value is on record as 79%.
`COCCOc1ccc2oc(C(Nc3ccc(C(=O)N(C)CCC(=O)O)cc3)C3CCCCC3)c(C)c2c1` (stereo not drawn) [Example A80, 3-[{[4-({cyclohexyl[5-(2-methoxyethoxy)-3-methyl-1-benzofuran-2-yl]methyl}amino)phenyl]carbonyl}(methyl)amino]propanoic acid]: the “inhibitory rate (%) at 10 μM” value worked out at 92%.

Staying with this experiment, now noted: test compound 10 μM; 0.4% DMSO = 0%, non-labeled glucagon 1 μM = 100%; read-out: inhibitory rate (%) at 10 μM.
Take `CCC(CC)C(Nc1ccc(C(=O)N(C)CCC(=O)O)cc1)c1sc2ccccc2c1C` (stereo not drawn) [Example A135, 3-{[(4-{[2-ethyl-1-(3-methyl-1-benzothiophen-2-yl)butyl]amino}phenyl)carbonyl](methyl)amino}propanoic acid]: the inhibition at 10 µM was found to be 76%.
The same measure, in the same setting: to `CCn1nc(-c2ccc(C(F)(F)F)cc2)cc1C(Nc1ccc(C(=O)NCCC(=O)O)cc1)C1CCCCC1` (stereo not drawn) [Example 56, 3-[({4-[(cyclohexyl{1-ethyl-3-[4-(trifluoromethyl)phenyl]-1H-pyrazol-5-yl}methyl)amino]phenyl}carbonyl)amino]propanoic acid] belongs 76%.
Regarding `Cc1c(C(Nc2ccc(C(=O)N(C)CCC(=O)O)cc2)C2CCCCC2)oc2ccc(-c3cnn(C)c3)cc12` (stereo not drawn) [Example A181, 3-[{[4-({cyclohexyl[3-methyl-5-(1-methyl-1H-pyrazol-4-yl)-1-benzofuran-2-yl]methyl}amino)phenyl]carbonyl}(methyl)amino]propanoic acid], the inhibition at 10 µM turned out to be 88%.
Same read-out and setting: under `Cc1c(C(Nc2ccc(C(=O)NCCC(=O)O)cc2)C2CCCCC2)oc2cccnc12` (stereo not drawn) [Example A112, 3-{[(4-{[cyclohexyl(3-methylfuro[3,2-b]pyridin-2-yl)methyl]amino}phenyl)carbonyl]amino}propanoic acid] stands 85%.
Take `COCCOc1ccc2oc(C(Nc3ccc(C(=O)N(C)CCC(=O)O)cc3)C(C)C)c(C)c2c1` (stereo not drawn) [Example A173, 3-[{[4-({1-[5-(2-methoxyethoxy)-3-methyl-1-benzofuran-2-yl]-2-methylpropyl}amino)phenyl]carbonyl}(methyl)amino]propanoic acid]: the inhibition at 10 µM is 74%.
Take `Cc1noc(C)c1-c1ccc2oc(C(Nc3ccc(C(=O)N(C)CCC(=O)O)cc3)C3CCCCC3)c(C)c2c1` (stereo not drawn) [Example A178, 3-[{[4-({cyclohexyl[5-(3,5-dimethylisoxazol-4-yl)-3-methyl-1-benzofuran-2-yl]methyl}amino)phenyl]carbonyl}(methyl)amino]propanoic acid]: the inhibition at 10 µM worked out at 86%.
For the molecule `COc1cccc2cc(C(Nc3ccc(C(=O)N(C)CCC(=O)O)cc3)C3CCCCC3)oc12` (stereo not drawn) [Example A21, 3-{[(4-{[cyclohexyl(7-methoxy-1-benzofuran-2-yl)methyl]amino}phenyl)carbonyl](methyl)amino}propanoic acid], the inhibition at 10 µM was 62%.
The same measure, in the same setting: to `COCc1nn(-c2ccc(OC)cc2)cc1C(Nc1ccc(C(=O)N(C)CCC(=O)O)cc1)C1CCCCC1` (stereo not drawn) [Example 36, 3-[{[4-({cyclohexyl[3-(methoxymethyl)-1-(4-methoxyphenyl)-1H-pyrazol-4-yl]methyl}amino)phenyl]carbonyl}(methyl)amino]propanoic acid] belongs 69%; to `Cc1nn(-c2cccc(Cl)c2)cc1C(Nc1ccc(C(=O)N(C)CCC(=O)O)cc1)C1CCCCC1` (stereo not drawn) [Example 71, 3-[{[4-({[1-(3-chlorophenyl)-3-methyl-1H-pyrazol-4-yl](cyclohexyl)methyl}amino)phenyl]carbonyl}(methyl)amino]-propanoic acid], 71%; to `Cc1c(C(Nc2ccc(C(=O)N(C)CCC(=O)O)cc2)C2CCCCC2)oc2ccc(OC3CCS(=O)(=O)CC3)cc12` (stereo not drawn) [Example A199, 3-[({4-[(cyclohexyl{5-[(1,1-dioxidotetrahydro-2H-thiopyran-4-yl)oxy]-3-methyl-1-benzofuran-2-yl}methyl)amino]phenyl}carbonyl)(methyl)amino]propanoic acid], 88%.
Same read-out and setting: to `O=C(O)CCNC(=O)c1ccc(NC(c2nn(-c3ccccc3)c3ccccc23)C2CCCCC2)cc1` (stereo not drawn) [Example A14, 3-{[(4-{[cyclohexyl(1-phenyl-1H-indazol-3-yl)methyl]amino}phenyl)carbonyl]amino}propanoic acid] belongs 73%.
On the same count and under the same terms, to `Cn1c(C(Nc2ccc(C(=O)NCCC(=O)O)cc2)C2CCCCC2)nc2ccccc21` (stereo not drawn) [Example A3, 3-{[(4-{[cyclohexyl(1-methyl-1H-benzimidazol-2-yl)methyl]amino}phenyl)carbonyl]amino}propanoic acid] belongs 55%; to `Cc1c(C(Nc2ccc(C(=O)N(C)CCC(=O)O)cc2)C2CCCCC2)oc2ccc(N3CCOCC3)cc12` (stereo not drawn) [Example A186, 3-[{[4-({cyclohexyl[3-methyl-5-(morpholin-4-yl)-1-benzofuran-2-yl]methyl}amino)phenyl]carbonyl}(methyl)amino]propanoic acid], 85%.
On to `Cc1c(C(Nc2ccc(C(=O)NCCC(=O)O)cc2)C2CCCCC2)oc2ccc(Cl)cc12` (stereo not drawn) [Example A88, 3-{[(4-{[(5-chloro-3-methyl-1-benzofuran-2-yl)(cyclohexyl)methyl]amino}phenyl)carbonyl]amino}propanoic acid], for which the inhibition at 10 µM stood at 75%.
On the same count and under the same terms, to `Cc1c(C(CC(C)C)Nc2ccc(C(=O)N(C)CCC(=O)O)cc2)oc2ccc(Cl)cc12` (stereo not drawn) [Example A101, 3-{[(4-{[1-(5-chloro-3-methyl-1-benzofuran-2-yl)-3-methylbutyl]amino}phenyl)carbonyl](methyl)amino}propanoic acid] belongs 76%; to `Cc1nn(-c2ccc(C(F)(F)F)cc2)cc1C(Nc1ccc(C(=O)N(C)CCC(=O)O)cc1)C1CCCCC1` (stereo not drawn) [Example 28, 3-[({4-[(cyclohexyl{3-methyl-1-[4-(trifluoromethyl)phenyl]-1H-pyrazol-4-yl}methyl)amino]phenyl}carbonyl)(methyl)amino]propanoic acid], 71%.
The same measure, in the same setting: under `Cc1c(C(CC(C)C)Nc2ccc(C(=O)N(C)CCC(=O)O)cc2)oc2ccccc12` (stereo not drawn) [Example A24, 3-{methyl[(4-{[3-methyl-1-(3-methyl-1-benzofuran-2-yl)butyl]amino}phenyl)carbonyl]amino}propanoic acid] stands 70%; under `CCc1c(C(CC(C)C)Nc2ccc(C(=O)NCCC(=O)O)cc2)oc2ccccc12` (stereo not drawn) [Example A34, 3-{[(4-{[1-(3-ethyl-1-benzofuran-2-yl)-3-methylbutyl]amino}phenyl)carbonyl]amino}propanoic acid], 75%; under `Cc1c(C(Nc2ccc(C(=O)N(C)CCC(=O)O)cc2)C2CCCCC2)oc2ccc(NCc3ccccc3)cc12` (stereo not drawn) [Example A131, 3-[{[4-({[5-(benzylamino)-3-methyl-1-benzofuran-2-yl](cyclohexyl)methyl}amino)phenyl]carbonyl}(methyl)amino]-propanoic acid], 87%.
On the same count and under the same terms, under `Cc1nn(-c2ccccc2Cl)cc1C(Nc1ccc(C(=O)N(C)CCC(=O)O)cc1)C1CCCCC1` (stereo not drawn) [Example 73, 3-[{[4-({[1-(2-chlorophenyl)-3-methyl-1H-pyrazol-4-yl](cyclohexyl)methyl}amino)phenyl]carbonyl}(methyl)amino]-propanoic acid] stands 59%; under `Cc1c(C(Nc2ccc(C(=O)N(C)CCC(=O)O)cc2)C2CCCCC2)oc2ccc(NS(C)(=O)=O)cc12` (stereo not drawn) [Example A111, 3-[({4-[(cyclohexyl{3-methyl-5-[(methylsulfonyl)amino]-1-benzofuran-2-yl}methyl)amino]phenyl}carbonyl)(methyl)amino]propanoic acid], 70%; under `COc1ncccc1-c1ccc2oc(C(Nc3ccc(C(=O)N(C)CCC(=O)O)cc3)C3CCCCC3)c(C)c2c1` (stereo not drawn) [Example A177, 3-[{[4-({cyclohexyl[5-(2-methoxypyridin-3-yl)-3-methyl-1-benzofuran-2-yl]methyl}amino)phenyl]carbonyl}(methyl)amino]propanoic acid], 90%.
`CCc1nn(-c2ccc(C(F)(F)F)cn2)cc1C(Nc1ccc(C(=O)NCCC(=O)O)cc1)C1CCCCC1` (stereo not drawn) [Example 3, 3-[({4-[(cyclohexyl{3-ethyl-1-[5-(trifluoromethyl)pyridin-2-yl]-1H-pyrazol-4-yl}methyl)amino]phenyl}carbonyl)amino]propanoic acid]: the inhibition at 10 µM came out at 74%.
For the molecule `Cc1c(C(Nc2ccc(C(=O)NCCC(=O)O)cc2)C2CCCCC2)oc2ccc(Cl)nc12` (stereo not drawn) [Example A127, 3-{[(4-{[(5-chloro-3-methylfuro[3,2-b]pyridin-2-yl)(cyclohexyl)methyl]amino}phenyl)carbonyl]amino}propanoic acid], the inhibition at 10 µM came out at 71%.
As for `Cc1c(C(Nc2ccc(C(=O)NCCC(=O)O)cc2)C2CCCCC2)sc2ccncc12` (stereo not drawn) [Example A138, 3-{[(4-{[cyclohexyl(3-methylthieno[3,2-c]pyridin-2-yl)methyl]amino}phenyl)carbonyl]amino}propanoic acid], the inhibition at 10 µM was determined as 85%.
Same read-out and setting: to `Cc1c(C(Nc2ccc(C(=O)NCCC(=O)O)cc2)C2CCCC2)oc2ccc(F)cc12` (stereo not drawn) [Example A190, 3-{[(4-{[cyclopentyl(5-fluoro-3-methyl-1-benzofuran-2-yl)methyl]amino}phenyl)carbonyl]amino}propanoic acid] belongs 86%; to `CCc1nn(-c2ccc(OC)cc2)cc1C(Nc1ccc(C(=O)N(C)CCC(=O)O)cc1)C1CCCCC1` (stereo not drawn) [Example 51, 3-[{[4-({cyclohexyl[3-ethyl-1-(4-methoxyphenyl)-1H-pyrazol-4-yl]methyl}amino)phenyl]carbonyl}(methyl)amino]propanoic acid], 60%.
